Results reported in paper PMC9000499, “New Triazolyl N^N Bidentate Rh(III), Ir(III), Ru(II) and Os(II) Complexes: Synthesis and Characterization, Probing Possible Relations between Cytotoxicity with Transfer Hydrogenation Efficacy and Interaction with Model Biomolecules” (Molecules, 2022).
Several values for one entry are separate records, joined by “and”; a condition that tells them apart may be missing. Equal entries are not always repeated. Where two headings read alike, the source gives them in different places.

Key:
[1] = system: cervical cancer cells (Hela); assay: MTS in vitro cytotoxicity assay, Hela; format: cell-based; conditions: 96 h exposure, mean ± SD n = 6
Excerpt: (§1) The absorbance is directly proportional to cell viability.

[2] = MTS in vitro cytotoxicity assay, HEK293; format: cell-based; conditions: MTS assay, 96 h exposure, mean ± SD n = 6
Excerpt: as §1

lung cancer cells (A549) = assay: MTS in vitro cytotoxicity assay, A549; format: cell-based; conditions: mean ± SD n = 6
Excerpt: as §1

Lymphoma cells (MT4) = assay: MTS in vitro cytotoxicity assay, MT4; format: cell-based; conditions: 96 h exposure, mean ± SD n = 6
Excerpt: as §1

[3] = not given; remark: listed apart in the source
[4] = system: normal kidney cells (BHK21); assay: MTS in vitro cytotoxicity assay, BHK21; format: cell-based; conditions: mean ± SD n = 6
Excerpt: as §1

[5] = system: cancer cells (HeLa, HEK293, A549, MT4); conditions: summary over the selected cancer cell lines, MTS assay; for EC50: read-out: EC50 against the cancer cells
Protocol: (§2) An MTS (3-(4,5-dimethylthiazol-2-yl)-5-(3-carboxymethoxy-phenyl)-2-(4-sulfophenyl)-2H-tetrazolium) in vitro cytotoxicity assay was conducted to determine change in cell viability using a colour change. The MTS compound (yellow) is metabolised by viable cells to form a dark purple coloured compound, visible through UV-Vis spectroscopy at 490 nm. The absorbance is directly proportional to cell viability. Samples were tested across three plates in duplicate (n = 6), and the average value was reported.
(§3) HeLa (cervical cancer cells), Hek293 (kidney cancer cells), BHK21 (normal kidney cells), MT4 (lymphoma cells) and A549 (lung cancer cells) were grown using standard tissue culture techniques. The cells (1 × 10^5 cells/mL) were incubated in 96-well plates at 37 °C overnight, with the subsequent addition of the supplied compounds, at concentrations (100 µg/mL, 50.0 µg/mL, 25.0 µg/mL, 12.5 µg/mL, 6.25 µg/mL, 3.125 µg/mL and 0 µg/mL). The cells were left to incubate for four days, after which MTS (5 µL) was added to the cells. The absorbance values were measured at 490 nm after 1 h, 2 h and 4 h incubation periods, averaged, and the viability curves were drawn up.

[6] = system: kidney cancer cells (HEK293); assay: MTS in vitro cytotoxicity assay, HEK293; format: cell-based; conditions: EC50 against BHK21 divided by EC50 against HEK293
Excerpt: as §1

[7] = system: all the tested cell lines (Hela, HEK293, BHK21, MT4, A549); conditions: summary over all tested cell lines, MTS assay
Protocol: as §2, §3

[8] = qualitative, aqueous model system / PBS
[9] = base: NaHCO3 1.0 equiv., PBS pH 7.4, 310 K, 24 h
[10] = base: None, 2.0 equiv. halide abstractor AgBF4 added, PBS pH 7.4, 310 K, 24 h
[11] = base: None, 1 mol% catalyst, 2.0 equiv. sodium formate, PBS pH 7.4, 310 K, 24 h
[12] = percentage of lactate formed, base: NaHCO3 1.0 equiv., PBS pH 7.4, 310 K, 24 h
[13] = percentage of lactate formed, base: None, 2.0 equiv. AgBF4 added, PBS pH 7.4, 310 K, 24 h
[14] = percentage of lactate formed, base: None, PBS pH 7.4, 310 K, 24 h
[15] = Homo sapiens, A549, 96 h exposure
[16] = Mesocricetus auratus, BHK-21, 96 h exposure

SMILES | EC50 [1] | EC50 [2] | EC50 (lung cancer cells (A549); 96 h exposure) | EC50 (Lymphoma cells (MT4)) | EC50 ([4]; 96 h exposure) | EC50 BHK21 ([4]; 96 h exposure) | further results
Cc1c(C)c(C)[c-](C)c1C.F[B-](F)(F)F.[Cl-].[Ir+3].c1ccc(Cn2cc(-c3ccccn3)nn2)cc1 [Complex C5, [Chlorido(2-(1-benzyl-(3-κN)-1,2,3-triazol-4-yl)-(2′-κN)-pyridine)(η^6-pentamethylcypentadiene)iridium(III)] tetrafluoroborate] | > 500 µM | > 500 µM | > 500 µM | 67 ± 6 µM | 55 ± 1 µM | low cytotoxicities | Time with no detectable changes in the 1H NMR spectra (stability) (pH 7.4): over 72 h; Conversion (%) [3, 9]: 0.1 ± 0.02%; TON [3, 9]: ≤0.1; Conversion (%) [3, 10]: 20 ± 3%; TON [3, 10]: 20; Conversion (%) [3, 11]: 14 ± 2%; TON [3, 11]: 14; Selectivity (%) [3, 12]: 100%; Selectivity (%) [3, 13]: >99%; Selectivity (%) [3, 14]: 100%; Conversion of pyruvate to lactate ([3]; summary, base condition not specified): < 14%
Cc1ccc(C(C)C)cc1.F[B-](F)(F)F.[Cl-].[Ru+2].c1ccc(Cn2cc(-c3ccccn3)nn2)cc1 [Complex C1, [Chlorido(2-(1-benzyl-(3-κN)-1,2,3-triazol-4-yl)-(2′-κN)-pyridine)(η^6-p-cymene)ruthenium(II)] tetrafluoroborate] | > 500 µM | > 500 µM | > 500 µM | 37 ± 5 µM | 113 ± 17 µM | low cytotoxicities | Time with no detectable changes in the 1H NMR spectra (stability) (10% DMSO-d6 in phosphate-buffered D2O (pH 7.4), 37 °C): over 72 h; Selectivity (%) ([3]; pH 7.4): 100% and >99%
Cc1ccc(C(C)C)cc1.F[B-](F)(F)F.[Cl-].[Ru+2].c1ccc(Cn2cc(-c3ccccn3)nn2)nc1 [Complex C6, [Chlorido(2-((4-(pyridine-2-yl)-(3-κN)-1,2,3-trizol-1-yl)methyl)-(2′-κN)-pyridine)(η^6-p-cymene)ruthenium(II)] tetrafluoroborate] | 388 ± 70.9 µM | > 500 µM |  | 158 ± 44.2 µM |  | N.R. | EC50 A549 (lung cancer cells (A549); 96 h exposure): N.R.; EC50 against the cancer cells [5]: completely inactive against most cancer cells
c1ccc(Cn2cc(-c3ccccn3)nn2)cc1 [Complex L1, 2-(1-Benzyl-1H-1,2,3-triazol-4-yl)pyridine] |  |  |  | > 1300 µM |  |  | EC50 ([1]; Homo sapiens, HeLa): 168 ± 31 µM; EC50 ([2]; Homo sapiens, HEK293): > 1300 µM; SI (selectivity index) [6]: ≤1; EC50 (lung cancer cells (A549); [15]): > 1300 µM; EC50 [4, 16]: > 1300 µM
Cc1c(C)c(C)[c-](C)c1C.F[B-](F)(F)F.[Cl-].[Rh+3].c1ccc(Cn2cc(-c3ccccn3)nn2)cc1 [Complex C4, [Chlorido(2-(1-benzyl-(3-κN)-1,2,3-triazol-4-yl)-(2′-κN)-pyridine)(η^6-pentamethylcypentadiene)rhodium(III)] tetrafluoroborate] | ≥ 300 µM | > 500 µM | > 500 µM | 60 ± 8 µM | > 500 µM |  | 
Cc1ccc(C(C)C)cc1.F[B-](F)(F)F.[Cl-].[Os+2].c1ccc(Cn2cc(-c3ccccn3)nn2)cc1 [Complex C3, [Chlorido(2-(1-benzyl-(3-κN)-1,2,3-triazol-4-yl)-(2′-κN)-pyridine)(η^6-p-cymene)osmium(II)] tetrafluoroborate] | > 500 µM | > 500 µM | > 500 µM | 133 ± 12 µM | > 500 µM |  | Conversion (%) [3, 9]: 0.1 ± 0.03%; Conversion (%) [3, 10]: 3 ± 1%; Conversion (%) [3, 11]: 1 ± 0.3%; Selectivity (%) [3, 12]: 100%; Selectivity (%) [3, 13]: >99%; Selectivity (%) [3, 14]: 100%
Cc1ccc(C(C)C)cc1.F[B-](F)(F)F.[Cl-].[Os+2].c1ccc(Cn2cc(-c3ccccn3)nn2)nc1 [Complex C9, [Chlorido(2-((4-(pyridine-2-yl)-(3-κN)-1,2,3-trizol-1-yl)methyl)-(2′-κN)-pyridine)(η^6-p-cymene)osmium(II)] tetrafluoroborate] |  | > 400 µM | > 500 µM |  |  | N.R. | EC50 Hela [1]: N.R.; EC50 MT4 (Lymphoma cells (MT4)): N.R.; EC50 / activity against all the tested cell lines [7]: not active
Cc1c(C)c(C)[c-](C)c1C.F[B-](F)(F)F.[Cl-].[Ir+3].c1ccc(Cn2cc(-c3ccccn3)nn2)nc1 [Complex C11, [Chlorido(2-((4-(pyridine-2-yl)-(3-κN)-1,2,3-trizol-1-yl)methyl)-(2′-κN)-pyridine)(η^6-pentamethylcypentadiene)iridium(III)] tetrafluoroborate] | 2.5 ± 1 µM | > 500 µM | > 500 µM | 111 ± 7 µM |  | non-toxic and completely inactive and N.R. | Time with no detectable changes in the 1H NMR spectra (stability) (pH 7.4): over 72 h; Conversion (%) [3, 11]: 70 ± 5%; EC50 [5]: < 5 µM
CC(=O)OC[C@H]1O[C@@H]([S-])[C@H](OC(C)=O)[C@@H](OC(C)=O)[C@@H]1OC(C)=O.CCP(CC)CC.[Au+] [Auranofin, reference compound] | < 2 µM | < 0.1 µM | 12 ± 2 µM | < 2 µM | < 0.1 µM |  | 
c1ccc(Cn2cc(-c3ccccn3)nn2)nc1 [Complex L2, 2-((4-(Pyridin-2-yl)-1H-1,2,3-triazol-1-yl)methyl)pyridine] |  |  |  |  |  |  | EC50 ([1]; Homo sapiens, HeLa): 1070 ± 134 µM; EC50 ([2]; Homo sapiens, HEK293): > 1300 µM; SI (selectivity index) [6]: ≤1; EC50 (lung cancer cells (A549); [15]): > 1300 µM; EC50 MT4 (Lymphoma cells (MT4)): N.R.; EC50 [4, 16]: > 1300 µM
Cc1ccc(C(C)C)cc1.F[B-](F)(F)F.[Cl-].[Os+2].c1ccc(Cn2cc(-c3ccccn3)nn2)nc1 [Complex C8, [Chlorido(2-((4-(pyridine-2-yl)-(3-κN)-1,2,3-trizol-1-yl)methyl)-(2′-κN)-pyridine)(η^6-p-cymene)osmium(II)] tetrafluoroborate] |  | > 500 µM | > 500 µM |  | > 500 µM |  | EC50 Hela [1]: N.R.; EC50 MT4 (Lymphoma cells (MT4)): N.R.; EC50 / activity against all the tested cell lines [7]: not active
Cc1ccc(C(C)C)cc1.[Cl-].[Ru+2].c1ccc(Cn2cc(-c3ccccn3)nn2)cc1.c1ccc([B-](c2ccccc2)(c2ccccc2)c2ccccc2)cc1 [Complex C2, [Chlorido(2-(1-benzyl-(3-κN)-1,2,3-triazol-4-yl)-(2′-κN)-pyridine)(η^6-p-cymene)ruthenium(II)] tetraphenylborate] | 15 ± 1.7 µM | 11 ± 1.5 µM | 14 ± 4 µM | 9 ± 1 µM | 151 ± 0.6 µM | low cytotoxicities | Solubility in aqueous model system [8]: poorly soluble; EC50 [5]: 9 to 16 µM and ≤ 16 µM
Cc1c(C)c(C)[c-](C)c1C.F[B-](F)(F)F.[Cl-].[Rh+3].c1ccc(Cn2cc(-c3ccccn3)nn2)nc1 [Complex C10, [Chlorido(2-((4-(pyridine-2-yl)-(3-κN)-1,2,3-trizol-1-yl)methyl)-(2′-κN)-pyridine)(η^6-pentamethylcypentadiene)rhodium(III)] tetrafluoroborate] |  | > 500 µM |  | > 500 µM |  | N.R. | EC50 Hela [1]: N.R.; EC50 A549 (lung cancer cells (A549); 96 h exposure): N.R.
Cc1ccc(C(C)C)cc1.[Cl-].[Ru+2].c1ccc(Cn2cc(-c3ccccn3)nn2)nc1.c1ccc([B-](c2ccccc2)(c2ccccc2)c2ccccc2)cc1 [Complex C7, [Chlorido(2-((4-(pyridine-2-yl)-(3-κN)-1,2,3-trizol-1-yl)methyl)-(2′-κN)-pyridine)(η^6-p-cymene)ruthenium(II)] tetraphenylborate] | 26 ± 0.8 µM | 17 ± 4.8 µM | 53 ± 6 µM | 20 ± 4.8 µM | 67 ± 7.3 µM |  | Solubility in aqueous model system [8]: poorly soluble
